Laboratory results from US20240032541A1, “HERBICIDAL COMPOUNDS” (SYNGENTA CROP PROTECTION AG, priority 2020, published 2024).

Experiments:
Assay type in all cases: in vivo
[1] = tested on: Amaranthus retoflexus (AMARE); experiment: Pre-emergence herbicide glasshouse test; details: pre-emergence (sprayed after one day cultivation), 250 g/ha, evaluated after 13 days
Experimental: (§1) Seeds of a variety of test species are sown in standard soil in pots Amaranthus retoflexus (AMARE), Echinochloa crus-galli (ECHCG), Setaria faberi (SETFA)). After cultivation for one day (pre-emergence) or after 8 days cultivation (post-emergence) under controlled conditions in a glasshouse (at 24/16° C., day/night; 14 hours light; 65% humidity), the plants are sprayed with an aqueous spray solution derived from the formulation of the technical active ingredient in acetone/water (50:50) solution containing 0.5% Tween 20 (polyoxyethelyene sorbitan monolaurate, CAS RN 9005-64-5). Compounds are applied at 250 g/ha unless otherwise stated. The test plants are then grown in a glasshouse under controlled conditions in a glasshouse (at 24/16° C., day/night; 14 hours light; 65% humidity) and watered twice daily. After 13 days for pre and post-emergence, the test is evaluated for the percentage damage caused to the plant. The biological activities are shown in the following table on a five-point scale (5=81-100%; 4=61-80%; 3=41-60%; 2=21-40%; 1=0-20%).

[2] = tested on: Echinochloa crus-galli (ECHCG); experiment: Pre-emergence herbicide glasshouse test; details: pre-emergence (sprayed after one day cultivation), 250 g/ha, evaluated after 13 days
Experimental: as §1

Setaria faberi (SETFA) [3] = experiment: Pre-emergence herbicide glasshouse test; details: pre-emergence (sprayed after one day cultivation), 250 g/ha, evaluated after 13 days
Experimental: as §1

[4] = tested on: Amaranthus retoflexus (AMARE); experiment: Post-emergence herbicide glasshouse test; details: post-emergence (sprayed after 8 days cultivation), 250 g/ha, evaluated after 13 days
Experimental: as §1

[5] = tested on: Echinochloa crus-galli (ECHCG); experiment: Post-emergence herbicide glasshouse test; details: post-emergence (sprayed after 8 days cultivation), 250 g/ha, evaluated after 13 days
Experimental: as §1

Setaria faberi (SETFA) [6] = experiment: Post-emergence herbicide glasshouse test; details: post-emergence (sprayed after 8 days cultivation), 250 g/ha, evaluated after 13 days
Experimental: as §1

| SMILES | percentage damage caused to the plant, five-point scale, AMARE [1] | percentage damage caused to the plant, five-point scale, ECHCG [2] | percentage damage caused to the plant, five-point scale, SETFA (Setaria faberi (SETFA) [3]) | percentage damage caused to the plant, five-point scale, AMARE [4] | percentage damage caused to the plant, five-point scale, ECHCG [5] | percentage damage caused to the plant, five-point scale, SETFA (Setaria faberi (SETFA) [6]) |
| --- | --- | --- | --- | --- | --- | --- |
| FC(F)(F)CCCCc1nc(C(F)(F)F)nc2cccc(Oc3ncc(Cl)cn3)c12 [Compound 1.021] | 5 (5=81-100%) | 5 (5=81-100%) | 5 (5=81-100%) | 5 (5=81-100%) | 4 (4=61-80%) | 4 (4=61-80%) |
| Clc1cnc(Oc2cccc3cccc(Oc4ncc(Cl)cn4)c23)nc1 [Compound 1.001, 5-CHLORO-2-[[8-(5-CHLOROPYRIMIDIN-2-YL)OXY-1-NAPHTHYL]OXY]PYRIMIDINE] | 3 (3=41-60%) | 3 (3=41-60%) | 4 (4=61-80%) | 3 (3=41-60%) | 4 (4=61-80%) | 4 (4=61-80%) |
| COc1cnc(Oc2cccc3nc(C(F)(F)F)nc(CCCC(F)(F)F)c23)nc1 [Compound 1.026] | 2 (2=21-40%) | 4 (4=61-80%) | 4 (4=61-80%) | 4 (4=61-80%) | 3 (3=41-60%) | 4 (4=61-80%) |
| Cc1nc(CCCC(F)(F)F)c2c(Oc3ncc(Cl)cn3)cccc2n1 [Compound 1.013, 5-(5-chloropyrimidin-2-yl)oxy-2-methyl-4-(4,4,4-trifluorobutyl)quinazoline] | 3 (3=41-60%) | 4 (4=61-80%) | 5 (5=81-100%) | 3 (3=41-60%) | 4 (4=61-80%) | 4 (4=61-80%) |
| FC(F)(F)CCCc1nc(C(F)(F)F)nc2cccc(Oc3ncc(Br)cn3)c12 [Compound 1.025] | 4 (4=61-80%) | 5 (5=81-100%) | 5 (5=81-100%) | 4 (4=61-80%) | 5 (5=81-100%) | 4 (4=61-80%) |
| FC(F)(F)CCc1nc(C(F)(F)F)nc2cccc(Oc3ncc(Cl)cn3)c12 [Compound 1.022] | 5 (5=81-100%) | 5 (5=81-100%) | 5 (5=81-100%) | 4 (4=61-80%) | 4 (4=61-80%) | 4 (4=61-80%) |
| FC(F)(F)CCCc1cccc2cccc(Oc3ncc(Cl)cn3)c12 [Compound 1.002, 5-chloro-2-[[8-(4,4,4-trifluorobutyl)-1-naphthyl]oxy]pyrimidine] | 1 (1=0-20%) | 1 (1=0-20%) | 1 (1=0-20%) | 3 (3=41-60%) | 2 (2=21-40%) | 3 (3=41-60%) |
| Cc1ccc(Oc2ncc(Cl)cn2)c2c(CCCC(F)(F)F)nc(C(F)(F)F)nc12 [Compound 1.046, 5-(5-chloropyrimidin-2-yl)oxy-8-methyl-4-(4,4,4-trifluorobutyl)-2-(trifluoromethyl)quinazoline] | 2 (2=21-40%) | 2 (2=21-40%) | 3 (3=41-60%) | 4 (4=61-80%) | 3 (3=41-60%) | 2 (2=21-40%) |
| Fc1cnc(Oc2cccc3nc(C(F)(F)F)nc(CCCC(F)(F)F)c23)nc1 [Compound 1.011] | 5 (5=81-100%) | 5 (5=81-100%) | 5 (5=81-100%) | 5 (5=81-100%) | 5 (5=81-100%) | 5 (5=81-100%) |
| Cc1nc2cccc(Oc3ncc(Cl)cn3)c2c(CCCC(F)(F)F)c1C#N [Compound 1.043, 5-(5-chloropyrimidin-2-yl) oxy-2-methyl-4-(4,4,4-trifluorobutyl) quinoline-3-carbonitrile] | 0 | 1 (1=0-20%) | 2 (2=21-40%) | 2 (2=21-40%) | 1 (1=0-20%) | 2 (2=21-40%) |
| COc1nc(CCCC(F)(F)F)c2c(Oc3ncc(Cl)cn3)cccc2n1 [Compound 1.014, 5-(5-chloropyrimidin-2-yl)oxy-2-methoxy-4-(4,4,4-trifluorobutyl)quinazoline] | 5 (5=81-100%) | 5 (5=81-100%) | 5 (5=81-100%) | 5 (5=81-100%) | 5 (5=81-100%) | 5 (5=81-100%) |
| FC(F)(F)CCOc1nc(C(F)(F)F)nc2cccc(Oc3ncc(Cl)cn3)c12 [Compound 1.006, 5-(5-chloropyrimidin-2-yl)oxy-2-(trifluoromethyl)-4-(3,3,3-trifluoropropoxy)quinazoline] | 5 (5=81-100%) | 3 (3=41-60%) | 5 (5=81-100%) | 5 (5=81-100%) | 3 (3=41-60%) | 3 (3=41-60%) |
| FC(F)(F)CCCc1nc(Br)nc2cccc(Oc3ncc(Cl)cn3)c12 [Compound 1.029] | 1 (1=0-20%) | 1 (1=0-20%) | 4 (4=61-80%) | 4 (4=61-80%) | 1 (1=0-20%) | 2 (2=21-40%) |
| FC(F)(F)CCOc1ncnc2cccc(Oc3ncc(Cl)cn3)c12 [Compound 1.008] | 5 (5=81-100%) | 1 (1=0-20%) | 5 (5=81-100%) | 3 (3=41-60%) | 1 (1=0-20%) | 1 (1=0-20%) |
| FC(F)(F)CCOc1nccc2cccc(Oc3ncc(Cl)cn3)c12 [Compound 1.009] | 1 (1=0-20%) | 1 (1=0-20%) | 1 (1=0-20%) | 1 (1=0-20%) | 1 (1=0-20%) | 1 (1=0-20%) |
| FC(F)Oc1cnc(Oc2cccc3nc(C(F)(F)F)nc(CCCC(F)(F)F)c23)nc1 [Compound 1.027] | 3 (3=41-60%) | 2 (2=21-40%) | 0 | 4 (4=61-80%) | 1 (1=0-20%) | 1 (1=0-20%) |
| FC(F)(F)CCCc1nccc2cccc(Oc3ncc(Cl)cn3)c12 [Compound 1.012, 8-(5-chloropyrimidin-2-yl)oxy-1-(4,4,4-trifluorobutyl)isoquinoline] | 4 (4=61-80%) | 5 (5=81-100%) | 5 (5=81-100%) | 4 (4=61-80%) | 4 (4=61-80%) | 4 (4=61-80%) |
| Cc1cnc(Oc2cccc3nc(C(F)(F)F)nc(CCCC(F)(F)F)c23)nc1 [Compound 1.020] | 5 (5=81-100%) | 5 (5=81-100%) | 5 (5=81-100%) | 4 (4=61-80%) | 5 (5=81-100%) | 5 (5=81-100%) |
